Experimental data reported in patent US11951204B2, “Cell-penetrating peptides and composition including the same” (S-SKIN. CO., LTD., priority 2022, dated 2024).
Ends that are not written are not given here. Peptide text beside a SMILES is read from it. * marks the point of attachment. FITC = O=C1OC2(c3ccc(O)cc3Oc3cc(O)ccc32)c2ccc(NC(=S)*)cc21; Palmitoyl = CCCCCCCCCCCCCCCC(=O)*; Ahx = NCCCCCC(=O)O

Legend:
Format in all cases: cell-based, human
HaCaT cells [1] = assay: Cell penetration rate by flow cytometry; details: 10 μM, 37° C., 1 hour
Procedure: (§1) HaCaT cells were inoculated at a concentration of 3×10^5 cells/well into a 6-well plate and incubated for 24 hours. Then, the cell culture medium was removed, followed by washing twice with HBSS, and replaced with an Opti-MEM medium. The cells were treated with 10 μM FITC-TAT, FITC-Spep001, FITC-Spep002 or FITC-Spep003 and incubated at 37° C. with 5% CO2 for 1 hour. […] Finally, the cells were treated with 1 mg/mL trypsin and thus separated into single cells, followed by centrifugation at 1,000 rpm for 5 minutes. The FITC fluorescence intensities of cell-penetrating peptides per living 10,000 cells were measured by performing flow cytometry (Navios Flow Cytometer by Beckman Coulter Life Sciences), and the result thereof is shown in FIG. 5A(i) to FIG. 5A(v) and FIG. 5B.

HDF-N cells = test system: HDF-N cells
Procedure: (§2) Cytotoxicity of the cell-penetrating multifunctional peptide according to Example 1 was checked. Specifically, HaCaT cells (human keratinocytes) were inoculated at a concentration of 1.5×10^4 cells/well into a 96-well plate and incubated for 24 hours. Then, the medium was removed, followed by washing once with PBS, and replaced with a serum-free medium. The cells were treated with Spep001 (SEQ ID NO: 1), Spep002 (SEQ ID NO: 8) or Spep003 (SEQ ID NO: 9) at a concentration of 0 μM, 25 μM, 50 μM, 100 μM or 200 μM and then further incubated for 24 hours. Herein, culture conditions were maintained at 37° C. with 5% CO2.
(§3) Also, at the time of completion of incubation, a WST-1 assay (Water Soluble Tetrazolium salt-1, EZ-assay kit, DoGenBio) was conducted. Specifically, 100 μL of a WST-1 solution was added to the well of cells after the completion of further incubation and then incubated for 3 hours. Thereafter, the absorbance at 450 nm was measured using a microplate spectrophotometer (Multiskan™ GO, thermo), and the result thereof is shown in FIG. 2B and Table 2 below.
HDF-N cells were treated with 12.5 μM KTTKS (SEQ ID NO: 5), Spep001-KTTKS (SEQ ID NO: 6) and pal-KTTKS which are peptides fabricated in Example 9. The appearance and proliferation rate of the cells were measured as in Example 3, and the results thereof are shown in FIG. 9A(i) to FIG. 9A(iv), FIG. 9B and Table 7 below.

[2] = Cytotoxicity assay (WST-1, microscopy) in HaCaT cells; details: human, HaCaT cells (keratinocytes), HaCaT, 24 hours, read-out: survival rate (WST-1)
Procedure: as §2
At the time of completion of further incubation, the appearance of the cells were imaged by a microscope, and the result thereof is shown in FIG. 2A(i) to FIG. 2A(xx).
as §3
Herein, all the result values are expressed in mean±standard deviation. The analysis result of each item was statistically analyzed by a 2-way analysis of variance (ANOVA) test. A Bonferroni post-test was conducted at a P value of *p<0.05 and **p<0.01 only when the significance was determined by ANOVA test. GraphPad prism 5.0.1 (GraphPad Software Inc., San Diego, CA, USA) was used as a statistical software program.

[3] = Cytotoxicity assay (WST-1, microscopy) in HDF-N cells; details: human, HDF-N cells (dermal fibroblasts, neonatal), HDF-N, 24 hours, read-out: survival rate (WST-1)
Procedure: as §2, §3
The appearance of HDF-N (human dermal fibroblast-neonatal) cells were imaged by a microscope as in Example 3, and the result thereof is shown in FIG. 3A(i) to FIG. 3A(xx). However, the HDF-N cells were inoculated at a concentration of 1.0×10^4 cells/well into a 96-well plate.

HaCaT cells [4] = assay: Dependence of cell penetration on ATP (flow cytometry); details: pre-treated with 2-DG and NaN3
Procedure: as §1
A test was conducted in the same conditions as those in Example 7 except that the cells were pre-treated with 2-DG (2-deoxyglucose, D6134, sigma) and NaN3 (sodium azide, 71289, sigma) one hour before treatment with FITC-TAT, FITC-Spep001, FITC-Spep002 or FITC-Spep003 to check the dependence of endocytosis on ATP. Then, the FITC fluorescence intensities of peptides penetrating into living cells were measured by flow cytometry as in Example 5, and the result thereof is shown in FIG. 7.

O=C1OC2(c3ccc(O)cc3Oc3cc(O)ccc32)c2ccc(N=C=S)cc21 [FITC, Fluorescein-5-Isothiocyanate, reference compound]
cell penetration rate (FITC-positive cell count) (HaCaT cells [1]): 0.4%

CCCCCCCCCCCCCCCC(=O)N[C@@H](CCCCN)C(=O)N[C@H](C(=O)N[C@H](C(=O)N[C@@H](CCCCN)C(=O)N[C@@H](CO)C(=O)O)[C@@H](C)O)[C@@H](C)O [Palmitoyl-KTTKS, Pal-KTTKS] (Palmitoyl-KTTKS-OH)
change in the appearance of the cells (microscope) (HDF-N cells): appearance of the cells treated with Pal-KTTKS was changed
Cell viability(%) (HDF-N cells; human, 24 h, 12.5 μM): 109.22%

N=C(N)NCCC[C@H](NC(=O)[C@H](CCCNC(=N)N)NC(=O)[C@H](CCCNC(=N)N)NC(=O)[C@H](CCC(N)=O)NC(=O)[C@H](CCCNC(=N)N)NC(=O)[C@H](CCCNC(=N)N)NC(=O)[C@H](CCCCN)NC(=O)[C@H](CCCCN)NC(=O)[C@H](CCCNC(=N)N)NC(=O)CNC(=O)[C@@H](N)Cc1ccc(O)cc1)C(=O)O [TAT, YGRKRRQRRR, reference compound]
viability at 24 h, 25 µM ([2]; 25 μM peptide): 102 ± 5.09%
viability at 24 h, 50 µM ([2]; 50 μM peptide): 106.3 ± 1.05%
viability at 24 h, 100 µM ([2]; 100 μM peptide): 106 ± 2.94%
viability at 24 h, 200 µM ([2]; 200 μM peptide): 102 ± 2.15%
viability at 24 h, 25 µM ([3]; 25 μM peptide): 106 ± 3.38%
viability at 24 h, 50 µM ([3]; 50 μM peptide): 94.9 ± 4.22%
viability at 24 h, 100 µM ([3]; 100 μM peptide): 103 ± 3.02%
viability at 24 h, 200 µM ([3]; 200 μM peptide): 96.7 ± 5.03%

FITC-Ahx-KRRWRKIPKR ({FITC-Ahx}-KRRWRKIPKR) [FITC-Spep002, Spep002 labelled with FITC at the N-terminal amine group]
FITC fluorescence intensity under ATP deficiency (HaCaT cells [4]): decreased
cell penetration rate (FITC-positive cell count) (HaCaT cells [1]): 6.3%
cell penetration rate based on TAT-FITC with a cell penetration rate of 100% (HaCaT cells [1]): 23.3%

FITC-Ahx-RKRWLRKPRP ({FITC-Ahx}-RKRWLRKPRP) [FITC-Spep003, Spep003 labelled with FITC at the N-terminal amine group]
FITC fluorescence intensity under ATP deficiency (HaCaT cells [4]): decreased
cell penetration rate (FITC-positive cell count) (HaCaT cells [1]): 7.8%
cell penetration rate based on TAT-FITC with a cell penetration rate of 100% (HaCaT cells [1]): 28.8%
